Here are results for 5 compounds from patent publication US20260217707A1, “GLP-1R AGONISTS AND USES THEREOF” (Fochon Biosciences, Ltd., priority 2023, published 2026).

The structures appear in SMILES notation.

Sequence of GLP1R receptor (P43220 24-463): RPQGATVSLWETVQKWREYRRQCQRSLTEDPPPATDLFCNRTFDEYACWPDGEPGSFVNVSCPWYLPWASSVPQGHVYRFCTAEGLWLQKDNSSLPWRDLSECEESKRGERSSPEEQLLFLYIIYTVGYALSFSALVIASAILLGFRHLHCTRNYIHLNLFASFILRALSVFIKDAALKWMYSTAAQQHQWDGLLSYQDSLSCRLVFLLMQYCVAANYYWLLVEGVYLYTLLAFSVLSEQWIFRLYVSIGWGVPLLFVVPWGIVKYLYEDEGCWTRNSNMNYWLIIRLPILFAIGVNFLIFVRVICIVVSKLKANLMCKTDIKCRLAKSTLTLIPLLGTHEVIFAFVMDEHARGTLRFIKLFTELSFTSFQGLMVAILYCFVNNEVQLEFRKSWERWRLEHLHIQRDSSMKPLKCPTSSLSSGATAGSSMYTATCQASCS

The experiment concerns the target GLP1R receptor (Homo sapiens, UniProt P43220). Description: cAMP assay: intracellular cAMP detected by TR-FRET. It is filed as cell-based. The following applies: cells incubated with compound at 37° C. for 30 min, maximum concentration 12 μM. As for the experimental part: Intracellular cAMP concentration was detected by TR-FRET method to evaluate the activity of drug-induced GLP1R receptor. The cells were prepared in an experimental buffer solution (HBSS, 20 mM HEPES (pH 7.5), 0.1% BSA, 500 μM IBMX) and inoculated into 384 cell culture plates with a inoculated density of 2000 cells and a inoculated volume of 15 μL per well. The compound was diluted by 3 times gradient with DMSO, 10 concentration gradients, and the 10 concentration gradients were diluted by 100 times in Buffer. The maximum concentration point of compound to be tested was 12 μM. The inoculated 384 cell plates were added with 5 μL prepared working solution and incubated at 37° C. for 30 min. Eu-cAMP tracer was diluted 50 times and Ulight-anti-cAMP 150 times by detection buffer (cAMP Kit, Perkin Elmer, cat #TRF0263). At first, 10 μL Eu-cAMP tracer was added to each experimental well, and then 10 μL Uligh-anti-cAMP was added to each experimental well. Centrifuged the assay plate at 200 g, RT, for 30 s, incubated it at 25° C. for 1 h. Collected the data by Envision 2105 microplate reader with a HTRF module. Excitation: 340 nm; emission: 665 nm and 615 nm.
The activation rate of each concentration of the tested compound to the positive drug was calculated by the formula % Activity=100 (SignalcmpdSignalAve_PC)/(SignalAve_VCSignalAve_PC)×100, EC50 values and nonlinear regression curve fits were obtained using GraphPad Prism software.
Regarding `Cc1cc(-n2nc3c(c2N2C(=O)N(c4ccc5c(cnn5C)c4F)C4CC42)[C@H](C)N(C(=O)c2cc4cc([C@H]5CCOC(C)(C)C5)ccc4n2[C@@]2(c4noc(=O)[nH]4)C[C@@H]2C)CC3)cc(C)c1F` (stereo partly drawn) [Example 6, 3-((1S,2S)-1-(5-((S)-2,2-dimethyltetrahydro-2H-pyran-4-yl)-2-((4S)-3-(4-(4-fluoro-1-methyl-1H-indazol-5-yl)-3-oxo-2,4-diazabicyclo[3.1.0]hexan-2-yl)-2-(4-fluoro-3,5-dimethylphenyl)-4-methyl-4,5,6,7-tetrahydro-2H-pyrazolo[4,3-c]pyridine-5-carbonyl)-1H-indol-1-yl)-2-methylcyclopropyl)-1,2,4-oxadiazol-5(4H)-one], the EC50 stood at 0.087 nM.
For `Cc1cc(-n2nc3c(c2-n2ccn(-c4ccc5c(cnn5C)c4F)c2=O)[C@H](C)N(C(=O)c2oc4cc(C5CCOC(C)(C)C5)ncc4c2C2(c4noc(=O)[nH]4)C[C@@H]2C)CC3)cc(C)c1F` (stereo partly drawn) [Example 31, 3-((2S)-1-(6-(2,2-dimethyl-tetrahydro-2H-pyran-4-yl)-2-((S)-3-(3-(4-fluoro-1-methyl-1H-indazol-5-yl)-2-oxo-2,3-dihydro-1H-imidazol-1-yl)-2-(4-fluoro-3,5-dimethylphenyl)-4-methyl-4,5,6,7-tetrahydro-2H-pyrazolo[4,3-c]pyridine-5-carbonyl)furo[3,2-c]pyridin-3-yl)-2-methyl-cyclopropyl)-1,2,4-oxadiazol-5(4H)-one] the value was 0.182 nM; for `Cc1cc(-n2nc3c(c2-n2ccn(-c4ccc5c(cnn5C)c4F)c2=O)[C@H](C)N(C(=O)c2sc4cc(C5CCOC(C)(C)C5)ccc4c2C2(c4noc(=O)[nH]4)C[C@@H]2C)CC3)cc(C)c1F` (some centres unmarked) [Example 3], 0.406 nM.
As for `Cc1cc(-n2nc3c(c2-n2ccn(-c4ccc5c(cnn5C)c4F)c2=O)[C@H](C)N(C(=O)c2sc4cc(C5CCOC(C)(C)C5)cnc4c2C2(c4noc(=O)[nH]4)C[C@@H]2C)CC3)cc(C)c1F` (stereo partly drawn) [Example 30, 3-((2S)-1-(6-(2,2-dimethyl-tetrahydro-2H-pyran-4-yl)-2-((S)-3-(3-(4-fluoro-1-methyl-1H-indazol-5-yl)-2-oxo-2,3-dihydro-1H-imidazol-1-yl)-2-(4-fluoro-3,5-dimethylphenyl)-4-methyl-4,5,6,7-tetrahydro-2H-pyrazolo[4,3-c]pyridine-5-carbonyl)thieno[3,2-b]pyridin-3-yl)-2-methyl-cyclopropyl)-1,2,4-oxadiazol-5(4H)-one], the EC50 is 0.044 nM.
For `Cc1cc(-n2nc3c(c2-n2ccn(-c4ccc5c(cnn5C)c4F)c2=O)[C@H](C)N(C(=O)c2sc4nc(C5CCOC(C)(C)C5)ccc4c2C2(c4noc(=O)[nH]4)C[C@@H]2C)CC3)cc(C)c1F` (stereo partly drawn) [Example 29, 3-((2S)-1-(6-(2,2-dimethyl-tetrahydro-2H-pyran-4-yl)-2-((S)-3-(3-(4-fluoro-1-methyl-1H-indazol-5-yl)-2-oxo-2,3-dihydro-1H-imidazol-1-yl)-2-(4-fluoro-3,5-dimethyl-phenyl)-4-methyl-4,5,6,7-tetrahydro-2H-pyrazolo[4,3-c]pyridine-5-carbonyl)thieno [2,3-b]pyridin-3-yl)-2-methylcyclopropyl)-1,2,4-oxadiazol-5(4H)-one] the value was 0.093 nM.
